# Assay results reported in the supplement of paper PMC10307832.
# Experiments:
# [1] = compound: CC1=C(C(=NN1)C)CC2=C(C3=C(S2)N(C(=O)N(C3=O)C)CC(C)C)C(=O)N4C[C@@H](CO4)O + Cc1nc(Nc2ncc(C(=O)Nc3c(C)cccc3Cl)s2)cc(N2CCN(CCO)CC2)n1 [Dasatinib] (partner 0.075 µM); test: relative viability (nuclei count vs DMSO), 5 days (fraction); higher = more cells survive
# Outline: (§1)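 Relative viability is defined as nuclei in treated wells over nuclei in vehicle wells. Duplicate plates were run and medians reported. Lung cancer cell lines in 1536-well plates were dosed by pin tool one day after seeding, with one drug or with a fixed anchor-drug dose plus five library-drug doses (not always all listed) in √10 steps, and nuclei were counted after 5 days.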
# [2] = compound: CC1=C(C(=NN1)C)CC2=C(C3=C(S2)N(C(=O)N(C3=O)C)CC(C)C)C(=O)N4C[C@@H](CO4)O + CCNC(=O)c1noc(-c2cc(C(C)C)c(O)cc2O)c1-c1ccc(CN2CCOCC2)cc1 [Luminespib] (partner 0.01 µM); test: as above
# Outline: as §1
Cell Line,relative viability ([1]; first compound 0.0025 µM),relative viability ([1]; first compound 0.007906 µM),relative viability ([1]; first compound 0.025 µM),relative viability ([1]; first compound 0.07906 µM),relative viability ([1]; first compound 0.25 µM),relative viability ([2]; first compound 0.0025 µM),relative viability ([2]; first compound 0.007906 µM),relative viability ([2]; first compound 0.025 µM),relative viability ([2]; first compound 0.07906 µM),relative viability ([2]; first compound 0.25 µM)
LCLC-103H,0.669,0.493,0.489,0.357,0.513,0.966,0.885,0.976,0.939,1.1
LCLC-97TM1,0.898,0.897,0.735,0.852,0.878,0.611,0.774,0.889,0.698,0.801
NCI-H727,0.293,0.416,0.501,0.292,0.396,0.309,0.378,0.387,0.369,0.387
NCI-H1355,0.759,0.701,0.783,0.689,0.685,0.836,0.617,0.684,0.778,0.724
HOP-62,0.672,0.852,0.74,0.466,0.559,0.892,1.01,0.809,0.824,0.986
NCI-H2085,0.254,0.264,0.26,0.209,0.242,0.443,0.412,0.412,0.41,0.343
